Experimental data reported in PubChem BioAssay (NCI).
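Assay format: 96-well plates, 48-hour exposure. GI50 is the concentration that inhibits growth by half. The concentration for full growth arrest is given as TGI.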

How the values were obtained:
Assay in all cases: growth of human tumour cells (NCI), 48 h
CCRF-CEM leukemia = test system: CCRF-CEM leukemia
MDA-MB-435 = test system: MDA-MB-435
MDA-MB-231 breast = test system: MDA-MB-231 breast
LOX IMVI melanoma = test system: LOX IMVI melanoma
HL-60(TB) leukemia = test system: HL-60(TB) leukemia
EKVX NSCLC = test system: EKVX NSCLC
MOLT-4 leukemia = test system: MOLT-4 leukemia
SNB-19 CNS = test system: SNB-19 CNS
A498 renal = test system: A498 renal
SW-620 colon = test system: SW-620 colon
BT-549 breast = test system: BT-549 breast
OVCAR-5 ovarian = test system: OVCAR-5 ovarian
SK-OV-3 ovarian = test system: SK-OV-3 ovarian
DU-145 prostate = test system: DU-145 prostate
UACC-257 melanoma = test system: UACC-257 melanoma
OVCAR-8 ovarian = test system: OVCAR-8 ovarian
CAKI-1 renal = test system: CAKI-1 renal
RPMI-8226 leukemia = test system: RPMI-8226 leukemia
HCC-2998 colon = test system: HCC-2998 colon
SF-295 CNS = test system: SF-295 CNS
HCT-15 colon = test system: HCT-15 colon
HOP-62 NSCLC = test system: HOP-62 NSCLC
MALME-3M melanoma = test system: MALME-3M melanoma
SNB-75 CNS = test system: SNB-75 CNS
SN12C renal = test system: SN12C renal
RXF 393 renal = test system: RXF 393 renal
UACC-62 melanoma = test system: UACC-62 melanoma

Q: What does the source list for `CCn1cc(C(=O)N/N=C/c2ccc(Br)cc2)c(=O)c2cc(F)c(N3CCNC(C)C3)c(F)c21` (centres undefined)?
A: GI50 (CCRF-CEM leukemia): 1490 nM; TGI (CCRF-CEM leukemia): 3520 nM; GI50 (MDA-MB-435): 1730 nM; TGI (MDA-MB-435): 3150 nM; GI50 (MDA-MB-231 breast): 1840 nM; TGI (MDA-MB-231 breast): 3370 nM; GI50 (LOX IMVI melanoma): 1750 nM; TGI (LOX IMVI melanoma): 3250 nM; GI50 (HL-60(TB) leukemia): 1880 nM; TGI (HL-60(TB) leukemia): 3800 nM; GI50 (EKVX NSCLC): 1590 nM; TGI (EKVX NSCLC): 3110 nM; GI50 (MOLT-4 leukemia): 1680 nM; TGI (MOLT-4 leukemia): 3470 nM; GI50 (SNB-19 CNS): 1700 nM; TGI (SNB-19 CNS): 3080 nM; GI50 (A498 renal): 1780 nM; TGI (A498 renal): 5300 nM; GI50 (SW-620 colon): 1710 nM; TGI (SW-620 colon): 3180 nM; GI50 (BT-549 breast): 1590 nM; TGI (BT-549 breast): 3230 nM; GI50 (OVCAR-5 ovarian): 1730 nM; TGI (OVCAR-5 ovarian): 3220 nM; GI50 (SK-OV-3 ovarian): 1930 nM; TGI (SK-OV-3 ovarian): 3680 nM; GI50 (DU-145 prostate): 1740 nM; TGI (DU-145 prostate): 3180 nM; GI50 (UACC-257 melanoma): 1680 nM; TGI (UACC-257 melanoma): 3210 nM; GI50 (OVCAR-8 ovarian): 1740 nM; TGI (OVCAR-8 ovarian): 3320 nM; GI50 (CAKI-1 renal): 1680 nM; TGI (CAKI-1 renal): 3080 nM; GI50 (RPMI-8226 leukemia): 1850 nM; TGI (RPMI-8226 leukemia): 3820 nM; GI50 (HCC-2998 colon): 1880 nM; TGI (HCC-2998 colon): 3570 nM; GI50 (SF-295 CNS): 1850 nM; TGI (SF-295 CNS): 3510 nM; GI50 (HCT-15 colon): 1440 nM; TGI (HCT-15 colon): 2930 nM; GI50 (HOP-62 NSCLC): 1720 nM; TGI (HOP-62 NSCLC): 3170 nM; GI50 (MALME-3M melanoma): 1780 nM; TGI (MALME-3M melanoma): 3420 nM; GI50 (SNB-75 CNS): 1570 nM; TGI (SNB-75 CNS): 2990 nM; GI50 (SN12C renal): 1570 nM; TGI (SN12C renal): 3010 nM; GI50 (RXF 393 renal): 1630 nM; TGI (RXF 393 renal): 3070 nM; GI50 (UACC-62 melanoma): 1880 nM; TGI (UACC-62 melanoma): 3360 nM
